In general, zone of inhibition refers to the size of the clear area around the sample on an inoculated plate. A lower zone of inhibition goes with little suppression of growth. As usually defined, the MBC is the smallest concentration meeting the test's criterion for killing. Read a high MBC as weaker bactericidal potency.

Assay type in all cases: cell-based
In data set [1] the test system is primary cells from human dental pulp. Kind of data set: Determination of the cytotoxicity (MTS assay). The settings on record: for maximum (tested) non-cytotoxic concentration: primary dental pulp cells. The procedure:
Tested cells: primary from dental pulp in complete high glucose DMEM medium+1 mg ascorbic acid, seeded in 96-well dishes;
Cell viability detection method: MTS assay from Promega (CellTiter 96® AQueous One Solution Cell Proliferation Assay) colorimetric metabolic assay that allows to evaluate variations in the number of cells being a dye reduced by cellular dehydrogenases. The greater the number of cells, the greater the amount of reduced compound;
Execution time: 24 hours and 72 hours from treatment;
Negative control: cells seeded in complete DMEM medium (CNT) are used;
Number of samples: for 24 hours, 6 samples of each type; for 72 hours 8 samples of each type.
Procedure: Cells (6000/well) are seeded on a 96-well dish to form a monolayer at approximately 40% confluence. After 24 hours the medium is replaced by a medium in which the compound has previously been solubilized, sterilized by 0.22 micron filtration. Growth medium alone is used as a negative control (CNT). At the following 24 and 72 hours the colorimetric test is performed. The absorbance values for each sample are averaged and the standard deviation calculated. The percent viability is calculated on the negative control.
The compounds according to Examples 1, 5, 6, and 7 were tested in order to evaluate their cytotoxicity on primary cells from human dental pulp according to the “Determination of cytotoxicity” method described above, obtaining the values reported respectively in the following Tables 3, 4, 5, and 6. Cells were extracted from healthy third molars of patients after informed consent (Authorization Single Regional Committee FVG, study ID 2433, 29 Aug. 2018). After extraction, the stem cell nature was ascertained by evaluating the expression of the positive markers CD 90, CD 73, CD 29 and the negative markers CD 14, CD 34 and CD 45.
(In general: Tetrazolium dyes change colour on reduction, which living cells bring about.)

Data set [2] deals with E. coli (ATCC25922). Briefly: Determination of the minimum bactericidal concentration (MBC). The procedure:
(§1) A 20 mg/mL compound stock solution in BHI medium is prepared. In a 96-well plate, the compound solution is diluted serially (the concentration is halved at each step) to obtain the following final concentrations after addition of the bacteria suspension: 10 mg/mL; 5 mg/mL; 2.5 mg/mL; 1.25 mg/mL; 0.625 mg/mL; 0.31 mg/mL; 0.15 mg/mL; 0.08 mg/mL; 0.04 mg/mL; 0.02 mg/mL. Wells containing a mixture of penicillin and streptomycin antibiotics are used as a positive control. Compound-free medium is used as a growth control. A volume of bacterial suspension equal to 0.5*10^6 bacteria/mL is added to each well containing the compound and the controls. The dish is incubated at 37° C. for 24 hours. The lowest compound concentration at which no turbidity of the culture medium is evident is defined as MIC. For the calculation of MBC, aliquots equal to 50 μL are taken from the wells showing evident no turbidity of the medium and are plated on BHI agar plates for 48 hours. […] Bacterial suspensions taken from the positive control (growth medium only) and the negative control (growth medium with Ampicilin 100 μg/mL) are also seeded.
(§2) The compounds according to Examples 1, 3, 5, 6, and 7 were tested on bacterial strains different from S. mutans with the same methods described above, obtaining the MIC and MBC values reported in Table 2.

Data set [3] deals with S. Sanguis (ATCC 10556). The description is as above. The procedure:
as §1, §2

Data set [4] deals with S. Mitis (ATCC 49456). The description is as above. The procedure: as §1, §2
Data set [5] relates to S. Aureus (ATCC 25923). The data set is described as above. The method, then: as §1, §2
For data set [6], the system named is bacteria grown on agar. Kind of data set: Determination of bacterial inhibition - agar diffusion test of primer formulations. The settings on record: for zone of inhibition at 5 % strength: 5% by weight of compound; for zone of inhibition at 10 % strength: 10% by weight of compound. From the text:
A test adapted from a commonly used method for determining the sensitivity of a bacterial strain to antibiotics in solution, known as Kirby-Bauer antibiotic testing or disc diffusion antibiotic sensitivity testing was used (Brown D F, Kothari D (1975), “Comparison of antibiotic discs from different sources”, J. Clin. Pathol. 28 (10): 779-83. Doi: 10.1136 /jcp.28.10.779). The test performed involves the use of discs imbued with a known concentration of the substance under examination that are placed on a layer of bacteria grown on agar. The diffusion of the bactericidal molecule from the disk into the agar causes the inhibition of bacterial growth in the area surrounding the disk itself where the molecule has spread with the formation of what are called zones of growth inhibition. The diameter of these inhibition zones (transparent circular regions in comparison to the bacterial film) is proportional to the antibacterial efficacy of the molecule to its concentration and to its diffusion ability in the medium.
The bactericidal properties of the compounds according to Examples 1, 3, 5, 6 and 7 were tested in various primer-type preparations, using the method “Bacterial inhibition determination-Agar diffusion test” described above. The disk soaked in the tested primer formulation without addition of compounds according to Examples 1, 3, 5, 6 and 7 was used as a negative reference.
For the tests, the following primer-type formulations were used, identified by the following codes: […]
Background: In agar diffusion tests the substance spreads into inoculated agar from a disc or well.

Data set [7] concerns S. mutans (ATCC 25175). Kind of data set: Determination of the minimum bactericidal concentration (MBC). The settings on record: Streptococcus mutans, ATCC25175; against S. Mutans. The method, then:
as §1
In order to test the antibacterial properties of the compounds prepared in Examples 1-8, on colonies of S. mutans (ATCC 25175), a bacterium commonly found in the human oral cavity, a test was set up to determine the minimum inhibitory concentration (MIC) and the minimum bactericidal concentration (MBC) according to the “Determination of minimum inhibitory concentration (MIC)” methods and “Determination of minimum bactericidal concentration (MBC)” described above.

The mark [8] stands for this setting: primer L1B, 1% by weight of compound.
[9] abbreviates: primer L3, 1% by weight of compound.
The mark [10] stands for this setting: primer PaA, 1% by weight of compound.

Turning to `C=C(C)C(=O)OCC[N+](CC)(CC)CCCCCCCCCCCC[N+](CC)(CC)CCOC(=O)C(=C)C.[Br-].[Br-]` [Example 5], the “% Viability 24 h” value in data set [1] (1 μg/mL) is 124.2 ± 6.3%; in data set [1] (10 μg/mL), 119.2 ± 6.8%; in data set [1] (50 μg/mL) it was 83.4 ± 4.5%; in data set [1] (100 μg/mL) it was 95.9 ± 7.2%; in data set [1] (500 μg/mL), 2.5 ± 1.0%. The “% Viability 72 h” value in data set [1] (1 μg/mL) turned out to be 72.6 ± 16.5%; in data set [1] (10 μg/mL), 69.7 ± 17.0%; in data set [1] (50 μg/mL), 70.8 ± 17.8%; in data set [1] (100 μg/mL), 68.8 ± 17.5%. Also, in data set [1], the “maximum (tested) non-cytotoxic concentration” value came to 100 µg/mL. The MCB worked out at 0.156 mg/mL in data set [2], 0.039 mg/mL in data set [3], 0.039 mg/mL in data set [4] and 0.039 mg/mL in data set [5]. Moreover, the zone of inhibition at 1 % strength in data set [6] (setting [8]) stood at 14 mm; in data set [6] (setting [9]) it was 13 mm; in data set [6] (setting [10]), 12 mm. The same compound returned a minimum bactericidal concentration (MBC) in data set [7] of 20 µg/mL.

For `C=C(C)C(=O)Nc1ccc([N+](C)(C)CCCCCCCCCCCC[N+](C)(C)c2ccc(NC(=O)C(C)=O)cc2)cc1.[Br-].[Br-]` [Example 6], the “% Viability 24 h” value in data set [1] (1 μg/mL) was 95.2 ± 13.2%; in data set [1] (10 μg/mL) it was 99.5 ± 13.5%; in data set [1] (50 μg/mL) it was 81.7 ± 8.2%; in data set [1] (100 μg/mL), 11.3 ± 2.1%; in data set [1] (500 μg/mL), 1.6 ± 0.9%; in data set [1] (1 mg/mL) it was 2.5 ± 0.9%. Further, the “% Viability 72 h” value worked out at 103.2 ± 18.9% in data set [1] (1 μg/mL); 97.7 ± 14% in data set [1] (10 μg/mL); 71.5 ± 16.3% in data set [1] (50 μg/mL); 2.0 ± 0.8% in data set [1] (100 μg/mL); 2.6 ± 3.6% in data set [1] (500 μg/mL); 3.5 ± 1.5% in data set [1] (1 mg/mL). Besides, the MCB was 0.002 mg/mL in data set [2], 0.005 mg/mL in data set [3], 0.01 mg/mL in data set [4] and 0.01 mg/mL in data set [5]. Moreover, the zone of inhibition at 1 % strength in data set [6] (setting [8]) was 14 mm; in data set [6] (setting [9]), 15 mm; in data set [6] (setting [10]) it was 15 mm. This compound had an MBC in data set [7] of 10 µg/mL.

Take `C=C(C)C(=O)OCC[N+](C)(C)CCCCCCCCCCCC[N+](C)(C)CCOC(=O)C(=C)C.[Br-].[Br-]` [Example 1]: in data set [1], the “decrease in cell viability” value is recorded as “did not show significant signs of decrease in cell viability”. Further, the “% Viability 24 h” value turned out to be 95.3 ± 12.5% in data set [1] (10 μg/mL); 105.6 ± 11.2% in data set [1] (50 μg/mL); 102.7 ± 7.2% in data set [1] (100 μg/mL); 86.6 ± 5.5% in data set [1] (500 μg/mL); 80.6 ± 5.3% in data set [1] (2 mg/mL). The “% Viability 72 h” value in data set [1] (10 μg/mL) is 110.0 ± 13.8%; in data set [1] (50 μg/mL) it was 111.0 ± 7.2%; in data set [1] (100 μg/mL), 122.4 ± 7.0%; in data set [1] (500 μg/mL), 115.3 ± 11.6%; in data set [1] (2 mg/mL), 76.9 ± 8.4%. The MCB in data set [2] is recorded as 0.625 mg/mL; in data set [3], 0.62 mg/mL; in data set [4] it was 0.62 mg/mL; in data set [5], 0.156 mg/mL. Moreover, the zone of inhibition at 1 % strength in data set [6] (primer L1A, 1% by weight of compound) worked out at 15 mm; in data set [6] (setting [8]), 5 mm; in data set [6] (primer L1C, 1% by weight of compound), 10 mm. For the same compound, the zone of inhibition at 5 % strength amounted to 20 mm in data set [6] (primer L1A), 15 mm in data set [6] (primer L1B) and 15 mm in data set [6] (primer L1C). Also, the zone of inhibition at 10 % strength was found to be 25 mm in data set [6] (primer L1A), 19 mm in data set [6] (primer L1B) and 20 mm in data set [6] (primer L1C). This compound also gave an MBC in data set [7] of 300 µg/mL.

As to `C=C(C)C(=O)NCc1cc[n+](CCCCCCCCCCCC[n+]2ccc(CNC(=O)C(=C)C)cc2)cc1.[Br-].[Br-]` [Example 7], the “% Viability 24 h” value came to 110.8 ± 15.9% in data set [1] (1 μg/mL); 105.9 ± 11.9% in data set [1] (10 μg/mL); 96.1 ± 10.5% in data set [1] (50 μg/mL); 91.7 ± 12.0% in data set [1] (100 μg/mL); 91.9 ± 16.8% in data set [1] (500 μg/mL); 49.1 ± 8.1% in data set [1] (1 mg/mL). Also, the “% Viability 72 h” value is 97.3 ± 17.5% in data set [1] (1 μg/mL); 100.6 ± 17.7% in data set [1] (10 μg/mL); 86.3 ± 16.4% in data set [1] (50 μg/mL); 71.8 ± 13.4% in data set [1] (100 μg/mL); 26.5 ± 5.1% in data set [1] (500 μg/mL); 5.0 ± 2.3% in data set [1] (1 mg/mL). In addition, the “maximum (tested) non-cytotoxic concentration” value in data set [1] came out at 50 µg/mL. Besides, the MCB in data set [2] came out at 0.0025 mg/mL; in data set [3], 0.02 mg/mL; in data set [4], 0.02 mg/mL; in data set [5], 0.005 mg/mL. Also, the zone of inhibition at 1 % strength was 17 mm in data set [6] (setting [8]), 14 mm in data set [6] (setting [9]) and 13 mm in data set [6] (setting [10]). The compound also came in with an MBC in data set [7] of 2.5 µg/mL.

The values are drawn from patent publication US20220402872A1, “PHOTOPOLYMERIZABLE ANTIBACTERIAL MONOMER” (UNIVERSITA' DEGLI STUDI DI TRIESTE, priority 2019, published 2022).
